# Results from US20170370908A1, “BRAIN IN VITRO MODELS, DEVICES, SYSTEMS, AND METHODS OF USE THEREOF” (President and Fellows of Harvard College, priority 2014, published 2017).
# System: pericytes
# Test: Muscular thin film (MTF) assay of pericyte contraction response to vasoactive agents
# Format: cell-based
# Details: pericytes on muscular thin films treated with vasoactive agent
# Excerpt: FIG. 6 illustrates an assay used to measure stress applied by pericytes treated with the vasoactive agent, endothelin.
# FIG. 7 illustrates stress measurement applied by pericytes treated with vasoactive agent endothelin.
structure (smiles),measurement,value
CC[C@H](C)[C@H](NC(=O)[C@H](CC(=O)O)NC(=O)[C@H](CC(C)C)NC(=O)[C@H](Cc1c[nH]cn1)NC(=O)[C@@H]1CSSC[C@H](N)C(=O)N[C@@H](CO)C(=O)N[C@H]2CSSC[C@H](NC(=O)[C@H](CCC(=O)O)NC(=O)[C@H](CCCCN)NC(=O)[C@H](CC(=O)O)NC(=O)[C@H](CCSC)NC(=O)[C@H](CC(C)C)NC(=O)[C@H](CO)NC(=O)[C@H](CO)NC2=O)C(=O)N[C@@H](C(C)C)C(=O)N[C@@H](Cc2ccc(O)cc2)C(=O)N[C@@H](Cc2ccccc2)C(=O)N1)C(=O)N[C@H](C(=O)N[C@@H](Cc1c[nH]c2ccccc12)C(=O)O)[C@@H](C)CC [endothelin],contraction response of pericytes (stress applied by pericytes),induces pericyte contraction
